Laboratory results from US20070027143A1, “Novel substituted 2,3-benzodiazepine derivatives” (priority 2003, published 2007).
Read-outs that look alike come from different tables or passages of the source. Marks after values point to notes of the source that are not given here.

Legend:
CD1 mice [1] = assay: Anticonvulsant activity, 3-mercapto-propionic acid induced seizures; type: in vivo; conditions: Mus musculus; po.; read-out: 3-MPA ED50
Experimental: (§1) The anti-seizure activity of some of the compounds of the present invention was measured using the electroshock test (J. Pharmacol. Exp. Ther. 106:319 (1952)) and the results are shown in Table 3. The spasmolytic activity of the compounds of the present invention was investigated by using e.g., pentetrazole (J. Pharmacol. Exp. Ther. 108:168 (1953)), strychnine (J. Pharmacol. Exp. Ther. 129:75 (1960)), bemegrid, nicotine, bicuculline, 4-aminopyridine and mercapto-propionic acid for inducing the clonic-tonic seizures and lethality. The investigated compounds were administered orally in three doses using 10 male CD1 mice/dose, usually 60 min before the induction of seizures.

CD1 mice [2] = assay: Muscle relaxant activity, inclined screen test; type: in vivo; conditions: Mus musculus, ip
CD1 mice [3] = assay: Anticonvulsant activity, strychnine induced seizures; type: in vivo; conditions: Mus musculus; po.; read-out: Strychnine ED50
Experimental: as §1

CD1 mice [4] = assay: Anticonvulsant activity, bemegride induced seizures; type: in vivo; conditions: Mus musculus; po.; read-out: Bemegride ED50
Experimental: as §1

CD1 mice [5] = assay: Muscle relaxant activity, rotarod test; type: in vivo; conditions: Mus musculus, ip
CD1 mice [6] = assay: Anticonvulsant activity, 4-aminopyridine induced seizures; type: in vivo; conditions: Mus musculus; po.; read-out: 4-AP ED50
Experimental: as §1

CD1 mice [7] = assay: Anticonvulsant activity, bicuculline induced seizures; type: in vivo; conditions: Mus musculus; po.; read-out: Bicuculline ED50
Experimental: as §1

Lewis rats [8] = assay: Autoimmune encephalomyelitis model, histological symptoms; type: in vivo; conditions: 7.5 mg/kg ip., day 24 after immunization
Experimental: (§2) 5-15 animals were used in each group. Their weights were 160-180 g (Lewis rats, female) and 180-220 g (Lewis rats, male). The activity of the compounds was determined according to the symptom score values, and compared to those of the control group (see Table 6). Histopathological investigations were carried out on the brain stem, the spinal cord, and the sciatic nerve (Gijbels et al., J. Clin. Invest. 94:2177 (1994)) using 5-10 animal/group.
(§3) Compounds of the invention were further investigated in the autoimmune encephalomyelitis model in rats as outlined in this description before, with the variance that 10 animals were used in each group, of weights 140-160 g (Lewis rats, female).

rats = assay: Inhibition of focal ischemia, middle cerebral artery occlusion (MCAO) test; type: in vivo
Experimental: The focal anti-ischemic activity of the compounds of formula (I) or (II) of the present invention was measured by the “middle cerebral artery occlusion” (MCAO) test (Bartus Stroke 11:2265 (1994) and Sydserff et al, Brit. J. Pharmacol. 114:1631 (1995)). […] After a histological process (TTC staining) 24 h later, the infarcted area was determined by a computer assisted scanner program and was compared to the results obtained in a control group treated with the vehicle.

CD1 mice [9] = assay: Anticonvulsant activity, pentetrazole induced seizures; type: in vivo; conditions: Mus musculus; po.; read-out: Pentetrazol ED50
Experimental: as §1

AMPA receptors = assay: Inhibition of AMPA induced spreading depression in isolated chicken retina; type: cell-based; conditions: AMPA (5 μM)
Experimental: (§4) In the first model the spreading depression caused by glutamate agonists (i.e., AMPA or kainate) was studied, while in the second one the transmembrane ion-current induced by the activation of the AMPA/kainate receptors was measured directly.
Inhibition of AMPA Induced “Spreading Depression” in Isolated Chicken Retina—
The AMPA antagonistic effect of the compounds of formula (I) or (II) was studied in the in vitro “spreading depression” model (Sheardown Brain Res. 607:189 (1993)). The AMPA antagonists prolong the latency of the development of the “spreading depression” caused by AMPA (5 μM).

CD1 mice [10] = assay: Anticonvulsant activity, nicotine induced seizures; type: in vivo; conditions: Mus musculus; po.
Experimental: as §1

AMPA/kainate receptors = assay: Inhibition of AMPA induced whole-cell current in acutely isolated cerebellar Purkinje cells (patch clamp); type: cell-based; conditions: 5 μM AMPA, read-out: Inhibition of the ion-currents caused by 5 μM AMPA, IC50
Experimental: as §4
The activity of the compounds of the present invention was studied on acutely isolated cerebellar Purkinje cells by measuring the whole-cell current induced by 5 μM AMPA according for example to the method described by Bleakman et al (Neuropharmacology 12:1689 (1996)).

CD1 mice [11] = assay: Anticonvulsant activity, maximal electroshock seizure (MES) test; type: in vivo; conditions: Mus musculus, po.
Experimental: as §1

Lewis rats [12] = assay: Autoimmune encephalomyelitis model, neurological (clinical) symptoms; type: in vivo; conditions: for Neurological symptoms (change, %) / change in vivo at 7.5 mg/kg: 7.5 mg/kg ip.; for Neurological symptoms (change, %): day 24 after immunization; for change in vivo at 1.875 mg/kg / change in vivo at 3.75 mg/kg / change in vivo at 7.5 mg/kg: Rattus norvegicus, ip, read-out: Neurological symptoms (change compared to controls, %); for change in vivo at 1.875 mg/kg: 1.875 mg/kg ip.; for change in vivo at 3.75 mg/kg: 3.75 mg/kg ip.
Experimental: as §2, with “The compounds were administered intraperitoneally twice a day for 8 days, starting on day 10 after immunization and with an observation period until symptoms were present. 5-15” for “5-15”
as §3

CD1 mice [13] = assay: Anti-tremor effect, GYKI 20039 induced tremor; type: in vivo; conditions: Mus musculus; po., Litchfield-Wilcoxon, limits in brackets; read-out: ED50, tremor induced by GYKI 20039 10 mg/kg ip.
CD1 mice [14] = assay: Anti-tremor effect, oxotremorine induced tremor; type: in vivo; conditions: Mus musculus; po., Litchfield-Wilcoxon, limits in brackets; read-out: ED50, tremor induced by Oxotremorin 1 mg/kg ip.
[15] = 2 mg/kg iv. 6x in every 30 min, first treatment 180 min after occlusion
[16] = 0.5 h, 30′, read-out: MES 30′ ED50
[17] = 1 h, 60 min before induction, read-out: MES (MES 60′) ED50

Row | SMILES | ED50 (CD1 mice [1]) [mg/kg] | ED50 (CD1 mice [2]) [mg/kg] | ED50 (CD1 mice [3]) [mg/kg] | ED50 (CD1 mice [4]) [mg/kg] | ED50 (CD1 mice [5]) [mg/kg] | melting point [°C] | ED50 (CD1 mice [6]) [mg/kg] | ED50 (CD1 mice [7]) [mg/kg] | Decrease of the infracted area in % compared to that of the control (rats; [15]) | ED50 (CD1 mice [9]) [mg/kg] | IC50 (AMPA receptors) [nM] | ED50 (CD1 mice [10]) [mg/kg] | IC50 (AMPA/kainate receptors) [nM] | ED50 (CD1 mice [11]; [16]) [mg/kg] | ED50 (CD1 mice [11]; [17]) [mg/kg] | change in vivo at 3.75 mg/kg (Lewis rats [12]; female rats, 0-8 day) [%] | change in vivo at 3.75 mg/kg (Lewis rats [12]; female rats, 0-14 day) [%] | change in vivo at 3.75 mg/kg (Lewis rats [12]; male rats, 0-8 day) [%] | change in vivo at 3.75 mg/kg (Lewis rats [12]; male rats, 0-14 day) [%] | change in vivo at 7.5 mg/kg (Lewis rats [12]; female rats, 0-8 day) [%] | other results
1 | C[C@@H]1Cc2cc3c(cc2C(c2ccc(N)cc2)=NN1c1nccs1)OCO3 [Example 61, (R)-5-(4-Aminophenyl)-8-methyl-7-(2-thiazolyl)-8,9-dihydro-7H-1,3-dioxolo[4,5-h][2,3]benzodiazepine] | 11 | 10.7 | 35.4 | 34.4 | 5.4 | 125 to 130 | 17.6 | 31 | 46* % | 32.5 | 1000 to 5000 | 59.3 | 490 | 11.5 | 13.1 | -44 | -48 | -44 | -46 | -56 | Histological symptoms (change, %) (Lewis rats [8]; female rats): −5%; Histological symptoms (change, %) (Lewis rats [8]; male rats): −20%; Decrease of the infracted area in % compared to that of the control (rats; 1 mg/kg iv. 6x in every 30 min, first treatment 120 min after occlusion): 63** %; Decrease of the infracted area in % compared to that of the control (rats; 1 mg/kg iv. 6x in every 30 min, first treatment 180 min after occlusion): 16%; Neuroprotective activity when administered 3 h after the occlusion (rats; result in words): significant activity; Neurological symptoms (change, %) (Lewis rats [12]; female rats): −53%; Neurological symptoms (change, %) (Lewis rats [12]; male rats): −54%; change in vivo at 1.875 mg/kg (Lewis rats [12]; female rats, 0-8 day): -18%; change in vivo at 1.875 mg/kg (Lewis rats [12]; female rats, 0-14 day): -7%; change in vivo at 1.875 mg/kg (Lewis rats [12]; male rats, 0-8 day): 13%; change in vivo at 1.875 mg/kg (Lewis rats [12]; male rats, 0-14 day): 5%; change in vivo at 7.5 mg/kg (Lewis rats [12]; female rats, 0-14 day): -53%; change in vivo at 7.5 mg/kg (Lewis rats [12]; male rats, 0-8 day): -60%; change in vivo at 7.5 mg/kg (Lewis rats [12]; male rats, 0-14 day): -63%; Activity compared to the reference compound (histopathological and pharmacological investigations) (Lewis rats [12]; result in words): more active than the reference compound GYKI 53773
2 | Cc1cc(C2=NN(c3nncs3)[C@H](C)Cc3cc4c(cc32)OCO4)ccc1N [Example 167, (R)-5-(4-Amino-3-methylphenyl)-8-methyl-7-(1,3,4-thiadiazol-2-yl)-8,9-dihydro-7H-1,3-dioxolo-[4,5-h][2,3]benzodiazepine] | 10.3 | 4.24 | 10.5 | 8.33 | 0.8 | 143 to 148 | 10.8 | 12.7 | – | 9.66 | 64 | – | 70 | 4.78 | 5.85 | – | – | – | – | – | ED50 (CD1 mice [13]): 7.73 mg/kg; ED50 (CD1 mice [14]): 4.81 mg/kg
3 | Cc1nnc(N2N=C(c3ccc(N)c(Cl)c3)c3cc4c(cc3C[C@H]2C)OCO4)s1 [Example 182, (R)-5-(4-Amino-3-chlorophenyl)-8-methyl-7-(5-methyl-1,3,4-thiadiazol-2-yl)-8,9-dihydro-7H-1,3-dioxolo-[4,5-h][2,3]benzodiazepine] | 7.57 | 5.84 | 5.9 | 7.94 | 2.61 | 98 to 100 | 5.44 | 8.44 | – | 8.37 | 20 | 24.2 | 31 | 5.08 | 6.17 | – | – | – | – | – | ED50 (CD1 mice [13]): 3.64 mg/kg; ED50 (CD1 mice [14]): 2.66 mg/kg
4 | C[C@@H]1Cc2cc3c(cc2C(c2ccc(N)cc2)=NN1C1=NCCS1)OCO3 [Example 69, (R)-5-(4-Aminophenyl)-7-(4,5-dihydro-thiazol-2-yl)-8-methyl-8,9-dihydro-7H-1,3-dioxolo-[4,5-h][2,3]benzodiazepine] | 34.2 | 12.2 | 27.7 | 33.3 | 1.2 | 148 to 150 | 16.6 | 18.1 | 28% | 46.9 | 900 | 16.8 | 420 | 8.7 | 14.7 | 43 | 58 | 35 | -40 | -29 | change in vivo at 7.5 mg/kg (Lewis rats [12]; female rats, 0-14 day): -24%; change in vivo at 7.5 mg/kg (Lewis rats [12]; male rats, 0-8 day): -51%; change in vivo at 7.5 mg/kg (Lewis rats [12]; male rats, 0-14 day): -50%
